Patent US20090239840A1, “AMINO SUBSTITUTED DIARYL[a,d]CYCLOHEPTENE ANALOGS AS [sequence] AGONISTS AND METHODS OF TREATMENT OF NEUROPSYCHIATRIC DISORDERS” (ACADIA PHARMACEUTICALS, INC., priority 2003, published 2009)

Molecular target: T1, muscarinic M2 receptor (Homo sapiens, UniProt P08172)
T1 construct: expressed in transfected cells
T1 sequence (P08172 1-466): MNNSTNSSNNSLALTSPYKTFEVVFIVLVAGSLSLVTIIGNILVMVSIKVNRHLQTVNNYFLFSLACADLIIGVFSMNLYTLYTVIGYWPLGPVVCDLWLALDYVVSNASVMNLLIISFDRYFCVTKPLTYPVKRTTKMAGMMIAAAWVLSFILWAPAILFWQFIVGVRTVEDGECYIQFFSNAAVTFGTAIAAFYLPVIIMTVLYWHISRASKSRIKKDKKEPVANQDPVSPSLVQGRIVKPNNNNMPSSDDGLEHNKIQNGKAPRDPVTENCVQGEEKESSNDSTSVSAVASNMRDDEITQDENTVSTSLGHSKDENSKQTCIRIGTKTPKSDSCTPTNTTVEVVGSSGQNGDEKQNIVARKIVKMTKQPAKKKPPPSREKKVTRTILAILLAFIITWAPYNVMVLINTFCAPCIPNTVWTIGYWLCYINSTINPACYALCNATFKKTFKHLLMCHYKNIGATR
Assay: R-SAT functional screen, M2
Assay type: cell-based
Settings: R-SAT; for Emax: read-out: M2 eff (efficacy); for EC50: read-out: M2 pEC50 (converted)
Experimental: Several compounds disclosed herein were evaluated for activity at muscarinic receptors using Receptor Selection and Amplification Technology (R-SAT) as described in U.S. Pat. No. 5,707,798, the disclosure of which is incorporated herein by reference in its entirety. The efficacy (eff) and potency (expressed as pEC50) of these compounds are presented in Table 1 at M1, M2, and M3 receptors.

Row | Emax [%] | EC50 [µM] | Structure (SMILES)
1 | 21 |  | COc1ccc2c(c1)Oc1ccc(Br)cc1N=C2N1CCNCC1 [8-Bromo-3-methoxy-11-(piperazin-1-yl)-dibenzo[b,f][1,4]oxazepine]
2 | 28 | 0.398 | Cc1cccc2c1Oc1cc(Cl)ccc1N=C2N1CCNCC1 [7-Chloro-4-methyl-11-(piperazin-1-yl)-dibenzo[b,f][1,4]oxazepine]
3 | 71 |  | Clc1cccc2c1Nc1ccccc1C(N1CCNCC1)=N2 [6-Chloro-11-(piperazin-1-yl)-5H-dibenzo[b,e][1,4]diazepine]
4 | 46 | 0.794 | Cc1ccc2c(c1)N=C(N1CCNCC1)c1cccc(C)c1O2 [4,8-Dimethyl-11-(piperazin-1-yl)-dibenzo[b,f][1,4]oxazepine]
5 | 19 |  | COc1ccc2c(c1)Oc1ccc(Cl)cc1N=C2N1CCNCC1 [8-Chloro-3-methoxy-11-(piperazin-1-yl)-dibenzo[b,f][1,4]oxazepine]
6 | 49 | 2.51 | COc1ccc2c(c1)Oc1ccc(F)cc1N=C2N1CCNCC1 [8-Fluoro-3-methoxy-11-(piperazin-1-yl)-dibenzo[b,f][1,4]oxazepine]
7 | 53 | 1.26 | Clc1ccc2c(c1)Oc1ccccc1C(N1CCNCC1)=N2 [7-Chloro-11-(piperazin-1-yl)-dibenzo[b,f][1,4]oxazepine]
8 | 45 | 3.16 | COc1ccc2c(c1)Oc1ccc(C)cc1N=C2N1CCNCC1 [3-Methoxy-8-methyl-11-(piperazin-1-yl)-dibenzo[b,f][1,4]oxazepine]
9 | 11 |  | FC(F)(F)c1ccc2c(c1)N=C(N1CCNCC1)c1cc(Br)ccc1O2 [2-Bromo-11-(piperazin-1-yl)-8-trifluoromethyl-dibenzo[b,f][1,4]oxazepine]
10 | 45 | 2.51 | COc1ccc2c(c1)Oc1ccccc1N=C2N1CCNCC1 [3-Methoxy-11-(piperazin-1-yl)-dibenzo[b,f][1,4]oxazepine]
11 | 44 | 1 | COc1ccc2c(c1)Oc1cc(Cl)ccc1N=C2N1CCNCC1 [7-Chloro-3-methoxy-11-(piperazin-1-yl)-dibenzo[b,f][1,4]oxazepine]
12 | 17 |  | Clc1ccc2c(c1)N=C(NC1CNC1)c1ccccc1N2 [Acetidin-3-yl-(8-chloro-5H-dibenzo[b,e][1,4]diazepine-11-yl)amine]
13 | 17 |  | Cc1ccc2c(c1)N=C(N1CCNCC1)c1cc(Br)ccc1O2 [2-Bromo-8-methyl-11-(piperazin-1-yl)-dibenzo[b,f][1,4]oxazepine]
14 | 58 | 2 | c1ccc2c(c1)N=C(N1CCNCC1)c1ccccc1O2 [11-(piperazin-1-yl)-dibenzo[b,f][1,4]oxazepine]
15 | 76 | 3.16 | Cc1ccc2c(c1)N=C(N1CCNCC1)c1ccccc1O2 [8-Methyl-11-(piperazin-1-yl)-dibenzo[b,f][1,4]oxazepine]
16 | 58 | 1.26 | FC(F)(F)c1ccc2c(c1)N=C(N1CCNCC1)c1ccccc1O2 [11-(piperazin-1-yl)-8-trifluoromethyl-dibenzo[b,f][1,4]oxazepine]
17 | 33 | 1.26 | c1ccc(-c2ccc3c(c2)N=C(N2CCNCC2)c2ccccc2O3)cc1 [8-Phenyl-11-(piperazin-1-yl)-dibenzo[b,f][1,4]oxazepine]
18 | 9 |  | Brc1ccc2c(c1)C(N1CCNCC1)=Nc1ccccc1O2 [2-Bromo-11-(piperazin-1-yl)-dibenzo[bf][1,4]oxazepine]
19 | 15 |  | Clc1ccc2c(c1)Oc1ccc(Br)cc1C(N1CCNCC1)=N2 [2-Bromo-7-chloro-11-(piperazin-1-yl)-dibenzo[b,f][1,4]oxazepine]
20 | 104 | 2 | c1ccc(-c2ccc3c(c2)N=C(N2CCNCC2)c2ccccc2N3)cc1 [8-Phenyl-11-(piperazin-1-yl)-5H-dibenzo[b,e][1,4]diazepine]
21 | 84 | 2 | Clc1ccc2c(c1)N=C(N1CCNCC1)c1c(Cl)cccc1N2 [1,8-Dichloro-11-(piperazin-1-yl)-5H-dibenzo[b,e][1,4]diazepine]
